ChEMBL document CHEMBL1201862, “PubChem BioAssay data set” (2004)
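Values below derive from 48-hour exposures of cells grown in 96-well plates, with endpoints linearly interpolated between the two concentrations bracketing the appropriate inhibition level. GI50: concentration for 50% inhibition of growth.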 Active and inactive are the calls of the source. Cut-off read from the data, not from the text of the source: active = GI50 up to about 1.1 µM and inactive = higher.

Columns and labels:
Test in all cases: growth of human tumour cells (NCI), 48 h
COLO 205 = test system: COLO 205
A549 = test system: A549
PC-3 = test system: PC-3
T47D = test system: T47D
SK-MEL-28 = test system: SK-MEL-28
MDA-MB-435 = test system: MDA-MB-435
NCI/ADR-RES = test system: NCI/ADR-RES
A498 = test system: A498
M14 = test system: M14
UO-31 = test system: UO-31
DLD-1 = test system: DLD-1
SN12C = test system: SN12C
MOLT-4 = test system: MOLT-4
Hs-578T = test system: Hs-578T
CCRF-CEM = test system: CCRF-CEM
KM12 = test system: KM12
NCI-H226 = test system: NCI-H226
LXFL 529 = test system: LXFL 529
K562 = test system: K562
SK-OV-3 = test system: SK-OV-3
M19-MEL = test system: M19-MEL
HCT-15 = test system: HCT-15
SK-MEL-5 = test system: SK-MEL-5
XF498 = test system: XF498
SW-620 = test system: SW-620
NCI-H23 = test system: NCI-H23
LOX IMVI = test system: LOX IMVI
SF-539 = test system: SF-539
BT-549 = test system: BT-549
DMS-273 = test system: DMS-273
OVCAR-8 = test system: OVCAR-8
SF-268 = test system: SF-268
U-251 = test system: U-251
IGROV-1 = test system: IGROV-1
HCT-116 = test system: HCT-116
CAKI-1 = test system: CAKI-1
Malme-3M = test system: Malme-3M
OVCAR-5 = test system: OVCAR-5
786-0 = test system: 786-0
SNB-19 = test system: SNB-19
OVCAR-3 = test system: OVCAR-3
MDA-N = test system: MDA-N
HOP-18 = test system: HOP-18
HCC 2998 = test system: HCC 2998
MDA-MB-231 = test system: MDA-MB-231
UACC-62 = test system: UACC-62
DMS-114 = test system: DMS-114
EKVX = test system: EKVX
KM-20L2 = test system: KM-20L2
OVCAR-4 = test system: OVCAR-4
MCF7 = test system: MCF7
SF-295 = test system: SF-295
NCI-H522 = test system: NCI-H522
HOP-92 = test system: HOP-92
HT-29 = test system: HT-29
NCI-H460 = test system: NCI-H460
UACC-257 = test system: UACC-257
RPMI-8226 = test system: RPMI-8226
TK-10 = test system: TK-10
ACHN = test system: ACHN
SR = test system: SR
HOP-62 = test system: HOP-62
DU-145 = test system: DU-145
SNB-75 = test system: SNB-75
SK-MEL-2 = test system: SK-MEL-2
RXF 393 = test system: RXF 393
HL-60 = test system: HL-60
SNB-78 = test system: SNB-78

CC(C)CC(NC(=O)OC(C)(C)C)C(=O)Nc1ccc(Nc2nc(F)nc(-c3c4ccccc4cn3C)n2)cc1 (stereo not given)
GI50 (COLO 205): 18.6 µM (inactive) | GI50 (A549): > 100 µM (inactive) | GI50 (PC-3): 35.1 µM (inactive) | GI50 (T47D): 40.4 µM (inactive) | GI50 (SK-MEL-28): > 100 µM (inactive) | GI50 (MDA-MB-435): > 100 µM (inactive) | GI50 (NCI/ADR-RES): > 100 µM (inactive) | GI50 (A498): 98.6 µM (inactive) | GI50 (M14): > 100 µM (inactive) | GI50 (UO-31): 44.9 µM (inactive) | GI50 (DLD-1): > 37.2 µM (inactive) | GI50 (SN12C): > 100 µM (inactive) | GI50 (MOLT-4): 59.7 µM (inactive) | GI50 (Hs-578T): 40.3 µM (inactive) | GI50 (CCRF-CEM): 33.3 µM (inactive) | GI50 (KM12): 12.6 µM (inactive) | GI50 (NCI-H226): > 100 µM (inactive) | GI50 (LXFL 529): 77.3 µM (inactive) | GI50 (K562): 62.2 µM (inactive) | GI50 (SK-OV-3): > 100 µM (inactive) | GI50 (M19-MEL): 97.9 µM (inactive) | GI50 (HCT-15): > 68.9 µM | GI50 (SK-MEL-5): > 100 µM (inactive) | GI50 (XF498): > 85.1 µM (inactive) | GI50 (SW-620): > 36 µM (inactive) | GI50 (NCI-H23): 62.5 µM (inactive) | GI50 (LOX IMVI): > 100 µM (inactive) | GI50 (SF-539): > 93.3 µM (inactive) | GI50 (BT-549): > 100 µM (inactive) | GI50 (DMS-273): 42.6 µM (inactive) | GI50 (OVCAR-8): 98.6 µM (inactive) | GI50 (SF-268): > 100 µM (inactive) | GI50 (U-251): 43.9 µM (inactive) | GI50 (IGROV-1): > 100 µM (inactive) | GI50 (HCT-116): 72.1 µM (inactive) | GI50 (CAKI-1): > 100 µM (inactive) | GI50 (Malme-3M): > 100 µM (inactive) | GI50 (OVCAR-5): > 100 µM (inactive) | GI50 (786-0): > 100 µM (inactive) | GI50 (SNB-19): > 86.1 µM (inactive) | GI50 (OVCAR-3): 22.5 µM (inactive) | GI50 (MDA-N): > 100 µM (inactive) | GI50 (HOP-18): > 100 µM (inactive) | GI50 (HCC 2998): 15.8 µM (inactive) | GI50 (MDA-MB-231): 66.1 µM (inactive) | GI50 (UACC-62): > 100 µM (inactive) | GI50 (DMS-114): 21.8 µM (inactive) | GI50 (EKVX): 52.7 µM (inactive) | GI50 (KM-20L2): 37.6 µM (inactive) | GI50 (OVCAR-4): > 41.8 µM (inactive) | GI50 (MCF7): 4.89 µM (inactive) | GI50 (SF-295): > 81.7 µM (inactive) | GI50 (NCI-H522): 75.3 µM (inactive) | GI50 (HOP-92): 52.2 µM (inactive) | GI50 (HT-29): 23.1 µM (inactive) | GI50 (NCI-H460): > 75 µM (inactive) | GI50 (UACC-257): > 100 µM (inactive) | GI50 (RPMI-8226): 3.07 µM (inactive) | GI50 (TK-10): > 92.7 µM (inactive) | GI50 (ACHN): 62.7 µM (inactive) | GI50 (SR): 53.6 µM (inactive) | GI50 (HOP-62): 12.7 µM (inactive) | GI50 (DU-145): 20.3 µM (inactive) | GI50 (SNB-75): 47.1 µM (inactive) | GI50 (SK-MEL-2): > 100 µM (inactive) | GI50 (RXF 393): 22.2 µM (inactive) | GI50 (HL-60): 3.94 µM (inactive) | GI50 (SNB-78): 14.7 µM (inactive)

C=COC(=O)N[C@H]1CCc2cc(OC)c(OC)c(OC)c2-c2ccc(SC)c(=O)cc21
GI50 (COLO 205): < 0.01 µM (active) | GI50 (A549): < 0.01 µM (active) | GI50 (PC-3): < 0.01 µM (active) | GI50 (T47D): 34 µM (inactive) | GI50 (SK-MEL-28): 1.36 µM (inactive) | GI50 (MDA-MB-435): < 0.01 µM (active) | GI50 (NCI/ADR-RES): < 0.01 µM (active) | GI50 (A498): < 0.01 µM (active) | GI50 (M14): < 0.01 µM (active) | GI50 (UO-31): < 0.048 µM (active) | GI50 (SN12C): < 0.01 µM (active) | GI50 (MOLT-4): < 0.01 µM (active) | GI50 (Hs-578T): < 0.01 µM (active) | GI50 (CCRF-CEM): < 0.01 µM (active) | GI50 (KM12): < 0.01 µM (active) | GI50 (NCI-H226): 0.0372 µM (active) | GI50 (LXFL 529): < 0.01 µM (active) | GI50 (K562): < 0.01 µM (active) | GI50 (SK-OV-3): 0.0255 µM (active) | GI50 (M19-MEL): < 0.01 µM (active) | GI50 (HCT-15): < 0.01 µM | GI50 (SK-MEL-5): < 0.01 µM (active) | GI50 (XF498): < 0.01 µM (active) | GI50 (SW-620): < 0.0286 µM (active) | GI50 (NCI-H23): < 0.01 µM (active) | GI50 (LOX IMVI): < 0.01 µM (active) | GI50 (SF-539): < 0.01 µM (active) | GI50 (BT-549): < 0.01 µM (active) | GI50 (DMS-273): < 0.01 µM (active) | GI50 (OVCAR-8): 0.0133 µM (active) | GI50 (SF-268): < 0.01 µM (active) | GI50 (U-251): < 0.01 µM (active) | GI50 (IGROV-1): < 0.01 µM (active) | GI50 (HCT-116): < 0.01 µM (active) | GI50 (CAKI-1): < 0.01 µM (active) | GI50 (Malme-3M): < 0.01 µM (active) | GI50 (OVCAR-5): 0.173 µM (active) | GI50 (786-0): < 0.01 µM (active) | GI50 (SNB-19): 0.0101 µM (active) | GI50 (OVCAR-3): < 0.01 µM (active) | GI50 (MDA-N): < 0.01 µM (active) | GI50 (HOP-18): > 100 µM (inactive) | GI50 (HCC 2998): < 0.01 µM (active) | GI50 (MDA-MB-231): < 0.01 µM (active) | GI50 (UACC-62): < 0.01 µM (active) | GI50 (DMS-114): < 0.01 µM (active) | GI50 (EKVX): 8.43 µM (inactive) | GI50 (KM-20L2): < 0.01 µM (active) | GI50 (OVCAR-4): 4.97 µM (inactive) | GI50 (MCF7): < 0.0136 µM (active) | GI50 (SF-295): < 0.01 µM (active) | GI50 (NCI-H522): < 0.01 µM (active) | GI50 (HOP-92): < 0.01 µM (active) | GI50 (HT-29): < 0.01 µM (active) | GI50 (NCI-H460): < 0.01 µM (active) | GI50 (UACC-257): 0.116 µM (active) | GI50 (RPMI-8226): < 0.01 µM (active) | GI50 (TK-10): 0.177 µM (active) | GI50 (ACHN): < 0.01 µM (active) | GI50 (SR): < 0.01 µM (active) | GI50 (HOP-62): < 0.0157 µM (active) | GI50 (DU-145): < 0.01 µM (active) | GI50 (SNB-75): 0.0578 µM (active) | GI50 (SK-MEL-2): < 0.01 µM (active) | GI50 (RXF 393): < 0.0176 µM (active) | GI50 (HL-60): < 0.01 µM (active) | GI50 (SNB-78): < 0.01 µM (active)
